Measured values reported in patent publication US20090076029A1 (Palatin Technologies, Inc., priority 2007, published 2009).
Entries after “also recorded” stand apart in the source; their conditions may differ. Read-outs that look alike come from different tables or passages of the source.

Experiments:
hMC3-R [1] = test system: T1, hMC3-R; assay: Competitive inhibition assay using [I125]-NDP-α-MSH, hMC3-R membranes; type: binding, human; details: for Ki: read-out: Ki (nM) (NDP-α-MSH) MC3-R
T1 construct: expressed in transfected cells; host or cells: HEK-293
In short: (§1)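 Single-concentration displacement (usually 1 μM compound) of 0.2–0.4 nM [125I]-NDP-α-MSH, run 90 min at room temperature in pH 7.2 HEPES containing MgCl2, CaCl2 and KCl. Receptor sources: transfected HEK-293 membranes for human MC3-R/MC4-R/MC5-R, B-16 mouse melanoma membranes for MC1-R. Bound counts normalised to 1 μM α-MSH-defined specific binding; triplicates averaged, values below 0% set to 0%.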

hMC5-R [2] = test system: T2, hMC5-R; assay: cAMP functional assay, HEK-293 cells expressing hMC5-R; type: cell-based, human; details: cAMP assay at 1 μM
T2 construct: expressed in transfected cells; host or cells: HEK-293
Protocol: (§2) General method for EC50 determination in functional activity assay. Functional evaluation of compounds at melanocortin receptors was performed by measuring the accumulation of intracellular cAMP in HEK-293 cells expressing hMC3-R, hMC4-R or hMC5-R, and in B-16 mouse melanoma cells expressing MC1-R. Cells suspended in Earle's Balanced Salt Solution containing 10 mM HEPES (pH 7.5), 5 mM MgCl2, 1 mM glutamine, 0.1% albumin and 0.6 mM 3-isobutyl-1-methyl-xanthine, a phosphodiesterase inhibitor, were plated in 96 well plates at a density of 0.5×10^5 cells per well. Cells were incubated with the test compounds in the presence or absence of α-MSH for 1 hour at 37° C. cAMP levels in the cell lysates were measured using an EIA kit (Amersham). Data analysis and EC50 values were determined using nonlinear regression analysis with Prism Graph-Pad software.
(§3) Functional status. The agonist/antagonist status with respect to MC1-R, MC-3R, MC4-R and MC5-R of certain compounds of the invention was determined.

hMC3-R [3] = test system: T1, hMC3-R; assay: cAMP functional assay, HEK-293 cells expressing hMC3-R; type: cell-based, human; details: cAMP assay at 1 μM
Protocol: as §2, §3

hMC4-R [4] = test system: T3, hMC4-R; assay: Competitive inhibition assay using [I125]-NDP-α-MSH, hMC4-R membranes; type: binding, human; details: for attenuation of binding of α-MSH and AgRP to MC4-R: both ligands (NDP-α-MSH and AgRP), summary
T3 construct: expressed in transfected cells; host or cells: HEK-293

hMC4-R [5] = test system: T3, hMC4-R; type: binding, human; details: for Inhibition at 1 μM (AgRP) MC4-R: 1 μM compound
In short: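 Membranes from hMC4-R-expressing cells incubated 1 h at 37 °C with 0.2 nM [I^125]-AgRP (83-132) and increasing compound in 25 mM HEPES pH 7.5, 100 mM NaCl, 2 mM CaCl2, 2 mM MgCl2, 0.3 mM 1,10-phenanthroline, 0.5% BSA. Filtration, gamma counting; specific binding kept ≤10% of added counts.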

MC1-R [6] = test system: T4, MC1-R; assay: cAMP functional assay, B-16 mouse melanoma cells expressing MC1-R; type: cell-based; details: cAMP assay at 1 μM
T4 construct: from B-16 mouse melanoma cells (containing MC1-R); endogenous in cells; host or cells: B-16 mouse melanoma cells
Protocol: as §2, §3

hMC5-R [7] = test system: T2, hMC5-R; assay: Competitive inhibition assay using [I125]-NDP-α-MSH, hMC5-R membranes; type: binding, human; details: for Ki: read-out: Ki (nM) (NDP-α-MSH) MC5-R
In short: as §1

hMC4-R [8] = test system: T3, hMC4-R; assay: cAMP functional assay in HEK-293 cells expressing MC4-R (agonist, neutral antagonist/Schild); type: cell-based, human; details: for intrinsic activity at MC4-R: NDP-α-MSH maximal stimulation = 1.0; for functional status at MC4-R: mostly at 1 μM
In short: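 Cells in EBSS/HEPES pH 7.5 with 0.3 mM IBMX, exposed to compound (0.05-5000 nM, 1% DMSO) for 1 h at 37 °C; cAMP by EIA, EC50 by nonlinear regression. Antagonism: 30 min compound pre-incubation, then 1 nM NDP-α-MSH for 1 h; Schild analysis over 0.005-5000 nM agonist gives pA2.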

MC1-R [9] = target: T5, MC1-R; assay: Competitive inhibition assay using [I125]-NDP-α-MSH, MC1-R membranes; type: binding, mouse; details: for Inhibition at 1 μM (NDP-α-MSH) MC1-R: 1 μM compound
T5 construct: other: 1 μM compound

[10] = MC4-R membranes, Table 1, read-out: Ki (nM) I125-NPD-α-MSH
[11] = read-out: Ki (nM) (NDP-α-MSH) MC4-R
[12] = MC4-R membranes, Table 1, read-out: Ki (nM) I125-AgRP
[13] = cAMP assay, read-out: EC50 (nM) at MC4-R

SMILES	Ki (hMC3-R [1])	functional status at MC5-R (hMC5-R [2])	functional status at MC3-R (hMC3-R [3])	Ki (hMC4-R [4]; [10])	attenuation of binding of α-MSH and AgRP to MC4-R (hMC4-R [4])	Ki (hMC4-R [4]; [11])	Inhibition at 1 μM (AgRP) MC4-R (hMC4-R [5])	Ki (hMC4-R [5]; [12])	Ki (hMC4-R [5]; read-out: Ki (nM) (AgRP) MC4-R)	functional status at MC1-R (MC1-R [6])	Ki (hMC5-R [7])	functional status (pAg, Ag, Antag, Inactive) (hMC4-R [8]; MC4-R, Table 1)	EC50 (hMC4-R [8]; MC4-R, Table 1, read-out: EC50)	intrinsic activity at MC4-R (hMC4-R [8])	functional status at MC4-R (hMC4-R [8]; cAMP assay)	EC50 (hMC4-R [8]; [13])	Ki (MC1-R [9])	Inhibition at 1 μM (NDP-α-MSH) MC1-R (MC1-R [9])	other results
C[C@@H]1CN(C(=O)[C@H](N)Cc2ccc3ccccc3c2)[C@@H](CCCNC(=N)N)CN1CCc1c[nH]c2ccccc12 [Example 8, N-(3-{1-(2(R)-Amino-3-naphthalen-2-yl-propionyl)-4-[2-(1H-indol-3-yl)-ethyl]-5(R)-methyl-piperazin-2(S)-yl}-propyl)-guanidine]	2120 nM	no intrinsic activity (intrinsic activity below 0.1 (10%) is classified as inactive or having no intrinsic activity)	no intrinsic activity (intrinsic activity below 0.1 (10%) is classified as inactive or having no intrinsic activity)	37 nM	attenuate the binding of both α-MSH and AgRP to MC4-R	37 nM	89%	56 nM	56 nM	no intrinsic activity (intrinsic activity below 0.1 (10%) is classified as inactive or having no intrinsic activity)	808 nM	Ag	> 1000 nM	0.9	full agonist	> 100 nM	162 nM	2%	Inhibition at 1 μM (NDP-α-MSH) MC3-R (hMC3-R [1]; 1 μM compound): 27%; Inhibition at 1 μM (NDP-α-MSH) MC4-R (hMC4-R [4]; 1 μM compound): 93%; Inhibition at 1 μM (NDP-α-MSH) MC5-R (hMC5-R [7]; 1 μM compound): 51%
Cc1[nH]c2ccccc2c1CCN1C[C@H](CCCNC(=N)N)N(C(=O)[C@H](N)Cc2ccc3ccccc3c2)C[C@H]1C [Example 9, N-(3-{1-(2(R)-Amino-3-naphthalen-2-yl-propionyl)-5(R)-methyl-4-[2-(2-methyl-1H-indol-3-yl)-ethyl]-piperazin-2(S)-yl}-propyl)-guanidine]	451 nM	agonist (intrinsic activity of 0.7 (70%) or higher is classified as an agonist)	no intrinsic activity (intrinsic activity below 0.1 (10%) is classified as inactive or having no intrinsic activity)	26 nM	attenuate the binding of both α-MSH and AgRP to MC4-R	26 nM	92%	35 nM	35 nM	partial agonist (intrinsic activity between 0.1 (10%) and 0.7 (70%) is classified as a partial agonist)	293 nM	Ag	384 nM	0.9	agonist (intrinsic activity of 0.7 (70%) or higher is classified as an agonist)	> 384 nM	148 nM	73%	
C[C@@H]1CN(C(=O)[C@H](N)Cc2ccc3ccccc3c2)[C@@H](CCCNC(=N)N)CN1C(=O)Cc1c[nH]c2ccccc12 [Example 6, N-{3-[1-(2(R)-Amino-3-naphthalen-2-yl-propionyl)-4-(2-1H-indol-3-yl-acetyl)-5(R)-methyl-piperazin-2(S)-yl]-propyl}-guanidine]	1820 nM	partial agonist (intrinsic activity between 0.1 (10%) and 0.7 (70%) is classified as a partial agonist)	no intrinsic activity (intrinsic activity below 0.1 (10%) is classified as inactive or having no intrinsic activity)	35 nM	attenuate the binding of both α-MSH and AgRP to MC4-R	35 nM	84%	83 nM	83 nM	no intrinsic activity (intrinsic activity below 0.1 (10%) is classified as inactive or having no intrinsic activity)	1530 nM	pAg (“pAg” means partial agonist)	> 1000 nM	0.2		> 1000 nM	315 nM	20%	
C[C@@H]1CN(C(=O)[C@H](N)Cc2ccc3ccccc3c2)[C@@H](CCCNC(=N)N)CN1C(=O)CCCc1c[nH]c2ccccc12 [Example 7]	657 nM	no intrinsic activity (intrinsic activity below 0.1 (10%) is classified as inactive or having no intrinsic activity)	no intrinsic activity (intrinsic activity below 0.1 (10%) is classified as inactive or having no intrinsic activity)	90 nM	attenuate the binding of both α-MSH and AgRP to MC4-R	90 nM	82%	133 nM	133 nM	no intrinsic activity (intrinsic activity below 0.1 (10%) is classified as inactive or having no intrinsic activity)	271 nM	pAg (“pAg” means partial agonist)	3800 nM	0.4		> 3000 nM	1200 nM	0%	
Cc1cc(Cl)ccc1C[C@@H](N)C(=O)N1C[C@@H](C)N(C(=O)Cc2ccc3ccccc3c2)C[C@@H]1CCCNC(=N)N [Example 11, N-{3-[1-[2(R)-amino-3-(4-chloro-2-dimethyl-phenyl)-propionyl]-5(R)-methyl-4-(2-naphthalen-2-yl-acetyl)-piperazin-2(S)-yl]-propyl}-guanidine]	398 nM	agonist (intrinsic activity of 0.7 (70%) or higher is classified as an agonist)	partial agonist (intrinsic activity between 0.1 (10%) and 0.7 (70%) is classified as a partial agonist)	3 nM	attenuate the binding of both α-MSH and AgRP to MC4-R	3 nM	89%	27 nM	27 nM	partial agonist (intrinsic activity between 0.1 (10%) and 0.7 (70%) is classified as a partial agonist)	774 nM	Ag	18 nM	0.9	agonist (intrinsic activity of 0.7 (70%) or higher is classified as an agonist)	18 nM	462 nM	3%	
Cc1cc(Cl)ccc1C[C@@H](N)C(=O)N1C[C@@H](C)N(CCc2c[nH]c3ccccc23)C[C@@H]1CCCNC(=N)N [Example 10, N-(3-{1-(2(R)-Amino-(4-chloro-2-methyl-phenyl)-propionyl)-5(R)-methyl-4-[2-(1H-indol-3-yl)-ethyl]-piperazin-2(S)-yl}-propyl)-guanidine]	177 nM	no intrinsic activity (intrinsic activity below 0.1 (10%) is classified as inactive or having no intrinsic activity)	no intrinsic activity (intrinsic activity below 0.1 (10%) is classified as inactive or having no intrinsic activity)	5 nM	attenuate the binding of both α-MSH and AgRP to MC4-R	5 nM	97%	5 nM	5 nM	no intrinsic activity (intrinsic activity below 0.1 (10%) is classified as inactive or having no intrinsic activity)	360 nM	pAg (“pAg” means partial agonist)	7 nM	1	partial agonists; also recorded: full agonist	> 7 nM	1730 nM	40%	
